Reference: patent US20110105420A1, “AMINOSUGAR COMPOUND AND PROCESS FOR PRODUCTION THEREOF” (Astellas Pharma Inc., priority 2008, published 2011)

Key:
Male ICR (normal) mice = assay: oral activity under a load of carbohydrates (blood glucose and plasma insulin); type: in vivo, mouse
Description: Male ICR (normal) mice (6 weeks old, purchased from SLC Japan, Inc.) were used for the animal. The compound was prepared into a solution using a 0.5% methylcellulose solution. Blood was collected from a mouse which had been fasted overnight, for the measurement of the blood glucose level and the blood plasma insulin level, and the mouse was orally administered with a solvent or the compound A (0.3, 1, 3, 10 mg/kg), immediately followed by oral administration of a carbohydrate solution (75 mg/mL starch, 25 mg/mL sucrose, 20 mL/kg). Subsequently, blood was collected 0.25, 0.5 and 1 hour after the oral administration, for the measurement of the blood plasma insulin level, and blood was collected 0.5, 1 and 2 hours after the oral administration, for the measurement of the blood glucose level.
The blood glucose level was measured by using Glucose CH-test Wako reagent (Wako Pure Chemical Industry, Ltd.), and the blood plasma insulin concentration was measured by using a Mouse Insulin ELISA Kit (Shibayagi Co., Ltd.). The test results are indicated in the average ±standard error.
The area-under-curve (AUC) of the blood glucose level-time curve was calculated from the blood glucose level for the time period up to 2 hours from the administration of the compound, and the AUC of the plasma insulin level-time curve was calculated from the blood plasma insulin level for the time period up to 1 hour from the administration of the compound. A statistical analysis was performed between the solvent-administered group and the compound A-administered group by using Dunnett's multiple range test, and a critical rate of less than 5% was defined as significant.

[1] = Solubility (physicochemical properties)
[2] = biological target: T1, human pancreatic α-amylase (Homo sapiens, UniProt P04746); assay: α-amylase inhibitory activity (starch-iodine absorbance); type: biochemical; conditions: enzyme from Sigma-Aldrich, starch substrate, 37° C., pH=7.0; read-out: inhibitory activity (IC50 value) against the human pancreatic α-amylase
T1 construct: The solutions of α-amylases from human saliva and pancreas were prepared from the enzymes purchased from Sigma-Aldrich Co; purchased Sigma-Aldrich Co; host or cells: human pancreas
T1 sequence (P04746 16-511): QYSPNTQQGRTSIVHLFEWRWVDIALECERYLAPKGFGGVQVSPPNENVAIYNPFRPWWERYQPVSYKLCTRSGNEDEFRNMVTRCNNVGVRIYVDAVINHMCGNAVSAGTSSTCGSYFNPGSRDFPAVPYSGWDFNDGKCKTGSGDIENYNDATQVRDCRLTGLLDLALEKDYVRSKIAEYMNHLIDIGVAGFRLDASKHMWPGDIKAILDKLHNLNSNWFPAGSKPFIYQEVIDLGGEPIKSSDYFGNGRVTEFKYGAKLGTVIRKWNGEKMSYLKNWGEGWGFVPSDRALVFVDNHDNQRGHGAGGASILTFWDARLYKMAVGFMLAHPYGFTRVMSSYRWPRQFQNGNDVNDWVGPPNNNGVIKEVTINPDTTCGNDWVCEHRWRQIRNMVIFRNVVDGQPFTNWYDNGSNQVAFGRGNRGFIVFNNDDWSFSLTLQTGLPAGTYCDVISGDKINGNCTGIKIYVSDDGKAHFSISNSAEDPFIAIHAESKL
Description: (§1) The solutions of pancreatic α-amylases of mouse, rat, dog and monkey were prepared from the pancreases of an ICR mouse (male, 8 weeks old, purchased from SLC Japan, Inc.), an SD rat (male, 8 weeks old, purchased from Charles River Laboratories Japan, Inc.), a beagle dog (male, 35 months old, purchased from Narc Corp.), and a cynomolgus monkey (male, 10 years old, purchased from CLEA Japan, Inc.). The solutions of α-amylases from human saliva and pancreas were prepared from the enzymes purchased from Sigma-Aldrich Co. These α-amylase solutions were all diluted to 800 U/mL using an assay buffer (48 mM NaCl, 5.4 mM KCl, 28 mM Na2HPO4, 43 mM NaH2PO4, 35 mM mannitol, pH=7.0). The various α-amylase solutions (20 U, 25 μL) and the compounds dissolved in the assay buffer (25 μL) were added to a 96-well microplate, and the microplate was incubated at 37° C. for 10 minutes. Subsequently, a starch solution (5 mg/mL, 50 μL) was added thereto, and the microplate was incubated at 37° C. for 10 minutes. A 0.33 M perchloric acid solution (50 μL) was added to the microplate to terminate the enzymatic reaction, and then a 0.01 M iodine solution (50 μL) was added thereto to color the solutions. The absorbance (660 nm) of each of the solutions was measured. The concentration of the compound inhibiting 50% of the α-amylase activity was calculated as the IC50 value.

human saliva α-amylase = biological target: T2, human saliva α-amylase (Homo sapiens, UniProt P0DUB6); assay: as above; type: biochemical; conditions: enzyme from Sigma-Aldrich, starch substrate, 37° C., pH=7.0; read-out: inhibitory activity (IC50 value) against the human saliva α-amylase
T2 construct: The solutions of α-amylases from human saliva and pancreas were prepared from the enzymes purchased from Sigma-Aldrich Co; purchased Sigma-Aldrich Co; host or cells: human saliva
T2 sequence (P0DUB6 16-511): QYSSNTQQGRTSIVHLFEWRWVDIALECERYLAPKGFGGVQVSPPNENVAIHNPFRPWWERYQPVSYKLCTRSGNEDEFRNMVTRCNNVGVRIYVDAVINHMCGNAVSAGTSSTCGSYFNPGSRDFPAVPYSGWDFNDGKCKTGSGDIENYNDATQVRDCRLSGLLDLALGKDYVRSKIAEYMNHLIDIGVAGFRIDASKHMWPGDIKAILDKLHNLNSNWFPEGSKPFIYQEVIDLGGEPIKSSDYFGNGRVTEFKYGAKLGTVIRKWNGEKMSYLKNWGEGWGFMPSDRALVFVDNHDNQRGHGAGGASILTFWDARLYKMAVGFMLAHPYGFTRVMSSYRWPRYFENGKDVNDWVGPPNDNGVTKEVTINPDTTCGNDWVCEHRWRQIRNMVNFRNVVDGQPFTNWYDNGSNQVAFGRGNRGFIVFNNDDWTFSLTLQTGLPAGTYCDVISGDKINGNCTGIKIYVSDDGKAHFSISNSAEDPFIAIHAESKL
Description: as §1

[3] = biological target: monkey pancreatic α-amylase; assay: as above; type: biochemical; conditions: cynomolgus monkey pancreas enzyme, starch substrate, 37° C., pH=7.0; read-out: inhibitory activity (IC50 value) against the monkey pancreatic α-amylase
Description: as §1

[4] = biological target: T3, mouse pancreatic α-amylase (Mus musculus, UniProt P00688); assay: as above; type: biochemical; conditions: read-out: inhibitory activity (IC50 value) against the mouse pancreatic α-amylase; ICR mouse pancreas enzyme, starch substrate, 37° C., pH=7.0
T3 construct: prepared from the pancreases of an ICR mouse; from tissue; host or cells: pancreas of ICR mouse (male, 8 weeks old, SLC Japan)
T3 sequence (P00688 16-508): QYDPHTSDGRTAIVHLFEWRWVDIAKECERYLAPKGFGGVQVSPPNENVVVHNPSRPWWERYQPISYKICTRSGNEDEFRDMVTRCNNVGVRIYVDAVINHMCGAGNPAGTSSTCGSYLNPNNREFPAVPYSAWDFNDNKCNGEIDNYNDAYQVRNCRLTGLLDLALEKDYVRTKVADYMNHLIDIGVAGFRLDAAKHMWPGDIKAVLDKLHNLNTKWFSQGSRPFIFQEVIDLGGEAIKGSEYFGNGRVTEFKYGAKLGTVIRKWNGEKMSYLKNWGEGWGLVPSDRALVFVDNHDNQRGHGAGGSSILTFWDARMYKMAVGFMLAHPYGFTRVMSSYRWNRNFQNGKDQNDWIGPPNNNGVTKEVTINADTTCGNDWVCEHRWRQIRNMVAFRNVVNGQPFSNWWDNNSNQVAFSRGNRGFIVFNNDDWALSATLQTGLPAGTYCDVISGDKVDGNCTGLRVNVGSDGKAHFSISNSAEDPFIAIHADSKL
Description: as §1

rat pancreatic α-amylase = biological target: T4, rat pancreatic α-amylase (Rattus norvegicus, UniProt P00689); assay: as above; type: biochemical; conditions: read-out: inhibitory activity (IC50 value) against the rat pancreatic α-amylase; SD rat pancreas enzyme, starch substrate, 37° C., pH=7.0
T4 construct: The solutions of pancreatic α-amylases of mouse, rat, dog and monkey were prepared from the pancreases; from tissue; host or cells: pancreas of SD rat (male, 8 weeks old, Charles River Laboratories Japan)
T4 sequence (P00689 16-508): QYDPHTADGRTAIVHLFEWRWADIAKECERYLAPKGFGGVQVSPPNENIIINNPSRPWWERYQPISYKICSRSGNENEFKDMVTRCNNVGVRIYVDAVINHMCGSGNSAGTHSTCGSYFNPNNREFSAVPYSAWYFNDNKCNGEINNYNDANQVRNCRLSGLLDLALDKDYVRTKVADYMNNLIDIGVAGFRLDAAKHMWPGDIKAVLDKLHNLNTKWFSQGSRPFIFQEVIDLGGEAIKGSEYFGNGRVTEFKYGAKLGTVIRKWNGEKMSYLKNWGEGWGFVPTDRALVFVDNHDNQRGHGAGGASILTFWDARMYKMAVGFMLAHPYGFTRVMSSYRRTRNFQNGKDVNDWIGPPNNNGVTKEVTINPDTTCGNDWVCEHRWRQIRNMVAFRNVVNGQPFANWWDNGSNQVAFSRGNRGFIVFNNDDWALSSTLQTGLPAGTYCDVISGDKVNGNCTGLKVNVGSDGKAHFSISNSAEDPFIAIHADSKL
Description: as §1

dog pancreatic α-amylase = assay: as above; type: biochemical; conditions: beagle dog pancreas enzyme, starch substrate, 37° C., pH=7.0; read-out: inhibitory activity (IC50 value) against the dog pancreatic α-amylase
Description: as §1

Solubility in acetone, MeOH, EtOH and MeCN [1] | Solubility in water, DMF and DMSO [1] | IC50 [2] | IC50 (human saliva α-amylase) | IC50 [3] | IC50 [4] | IC50 (rat pancreatic α-amylase) | IC50 (dog pancreatic α-amylase) | SMILES | blood glucose elevation suppressive action (Male ICR (normal) mice; oral administration 0.3 to 10 mg/kg, fasted ICR mice, carbohydrate load (starch + sucrose), glucose up to 2 hours, FIG. 7) | plasma insulin level lowering action (Male ICR (normal) mice; oral administration 0.3 to 10 mg/kg, fasted ICR mice, carbohydrate load, insulin up to 1 hour, FIG. 8) | dose at which the blood glucose elevation suppressive action was significant (Male ICR (normal) mice; oral, ICR mice, carbohydrate load, Dunnett's test vs solvent group)
slightly soluble | highly soluble | 2.02 nM | 2.2 nM | 2.14 nM | 1.9 nM | 2.01 nM | 2.06 nM | CC1OC(OC2C(CO)OC(OC3C(CO)=CC(NC4C(C)OC(OC5C(CO)OC(OC6C(CO)=CC(NC7C(C)OC(OC8C(CO)OC(OC9C(CO)=CC(NC%10C(C)OC(OC%11C(CO)OC(OC%12C(CO)OC(OC%13C(CO)OC(OC%14OC(CO)C(O)C(O)C%14O)C(O)C%13O)C(O)C%12O)C(O)C%11O)C(O)C%10O)C(O)C9O)C(O)C8O)C(O)C7O)C(O)C6O)C(O)C5O)C(O)C4O)C(O)C3O)C(O)C2O)C(O)C(O)C1NC1C=C(CO)C(O)C(O)C1O (stereo not drawn) [compound A] | dose-dependent blood glucose elevation suppressive action was recognized | dose-dependent, significant plasma insulin level lowering action was also recognized | ≥ 1 mg/kg
slightly soluble | highly soluble | 2.11 nM | 1.87 nM | 1.9 nM | 2.06 nM | 2.12 nM | 2.38 nM | CC1OC(OC2C(CO)OC(OC3C(CO)=CC(NC4C(C)OC(OC5C(CO)OC(OC6C(CO)=CC(NC7C(C)OC(OC8C(CO)OC(OC9C(CO)=CC(NC%10C(C)OC(OC%11C(CO)OC(OC%12C(CO)=CC(NC%13C(C)OC(OC%14C(CO)OC(OC%15C(CO)OC(OC%16C(CO)OC(OC%17OC(CO)C(O)C(O)C%17O)C(O)C%16O)C(O)C%15O)C(O)C%14O)C(O)C%13O)C(O)C%12O)C(O)C%11O)C(O)C%10O)C(O)C9O)C(O)C8O)C(O)C7O)C(O)C6O)C(O)C5O)C(O)C4O)C(O)C3O)C(O)C2O)C(O)C(O)C1NC1C=C(CO)C(O)C(O)C1O (stereo not drawn) [compound B] |  |  | 
slightly soluble | highly soluble | 2.21 nM | 1.99 nM | 2.02 nM | 1.73 nM | 1.95 nM | 2.07 nM | CC1OC(OC2C(CO)OC(OC3C(CO)=CC(NC4C(C)OC(OC5C(CO)OC(OC6C(CO)=CC(NC7C(C)OC(OC8C(CO)OC(OC9C(CO)=CC(NC%10C(C)OC(OC%11C(CO)OC(OC%12C(CO)=CC(NC%13C(C)OC(OC%14C(CO)OC(OC%15C(CO)=CC(NC%16C(C)OC(OC%17C(CO)OC(OC%18C(CO)OC(OC%19C(CO)OC(OC%20OC(CO)C(O)C(O)C%20O)C(O)C%19O)C(O)C%18O)C(O)C%17O)C(O)C%16O)C(O)C%15O)C(O)C%14O)C(O)C%13O)C(O)C%12O)C(O)C%11O)C(O)C%10O)C(O)C9O)C(O)C8O)C(O)C7O)C(O)C6O)C(O)C5O)C(O)C4O)C(O)C3O)C(O)C2O)C(O)C(O)C1NC1C=C(CO)C(O)C(O)C1O (stereo not drawn) [compound C] |  |  | 
